According to ChEMBL document CHEMBL2440076, “New triarylpyrazoles as broad-spectrum anticancer agents: design, synthesis, and biological evaluation” (Eur J Med Chem, 2013):

Tests used:
Assay type in all cases: functional
HCT-15 [1] = assay: Growth inhibition of human HCT15 cells assessed as cell growth at 5X10'-9 M after 48 hrs by sulforhodamine B assay; conditions: HCT-15, 48 h, read-out: Activity
HCT-116 [2] = assay: Growth inhibition of human HCT116 cells assessed as cell growth at 5X10'-9 M after 48 hrs by sulforhodamine B assay; conditions: HCT-116, 48 h, read-out: Activity
Malme-3M = assay: Growth inhibition of human MALME-3M cells assessed as cell growth at 5X10'-5 M after 48 hrs by sulforhodamine B assay; conditions: read-out: Activity
HT-29 = assay: Growth inhibition of human HT-29 cells assessed as cell growth at 5X10'-5 M after 48 hrs by sulforhodamine B assay; conditions: HT-29, 48 h, read-out: Activity
HCT-15 [3] = assay: Growth inhibition of human HCT15 cells assessed as cell growth at 5X10'-5 M after 48 hrs by sulforhodamine B assay; conditions: HCT-15, 48 h, read-out: Activity
HCT-116 [4] = assay: Growth inhibition of human HCT116 cells assessed as cell growth at 5X10'-5 M after 48 hrs by sulforhodamine B assay; conditions: HCT-116, 48 h, read-out: Activity
COLO 205 = assay: Growth inhibition of human COLO205 cells assessed as cell growth at 5X10'-5 M after 48 hrs by sulforhodamine B assay; conditions: COLO 205, 48 h, read-out: Activity
T47D = assay: Growth inhibition of human T47D cells assessed as cell growth at 5X10'-6 M after 48 hrs by sulforhodamine B assay; conditions: read-out: Activity
CAKI-1 [5] = assay: Growth inhibition of human CAKI-1 cells assessed as cell growth at 5X10'-6 M after 48 hrs by sulforhodamine B assay; conditions: CAKI-1, 48 h, read-out: Activity
A498 = assay: Growth inhibition of human A498 cells assessed as cell growth at 5X10'-6 M after 48 hrs by sulforhodamine B assay; conditions: A498, 48 h, read-out: Activity
HOP-62 [6] = assay: Growth inhibition of human HOP62 cells assessed as cell growth at 5X10'-9 M after 48 hrs by sulforhodamine B assay; conditions: HOP-62, 48 h, read-out: Activity
HCT-15 [7] = assay: Growth inhibition of human HCT15 cells assessed as cell growth at 5X10'-6 M after 48 hrs by sulforhodamine B assay; conditions: HCT-15, 48 h, read-out: Activity
NCI-H460 [8] = assay: Growth inhibition of human NCI-H460 cells assessed as cell growth at 5X10'-6 M after 48 hrs by sulforhodamine B assay; conditions: NCI-H460, 48 h, read-out: Activity
NCI-H322M = assay: Growth inhibition of human NCI-H322M cells assessed as cell growth at 5X10'-6 M after 48 hrs by sulforhodamine B assay; conditions: read-out: Activity
MDA-MB-468 = assay: Growth inhibition of human MDA-MB-468 cells assessed as cell growth at 5X10'-7 M after 48 hrs by sulforhodamine B assay; conditions: MDA-MB-468, 48 h, read-out: Activity
UO-31 = assay: Growth inhibition of human UO31 cells assessed as cell growth at 5X10'-7 M after 48 hrs by sulforhodamine B assay; conditions: UO-31, 48 h, read-out: Activity
RXF 393 = assay: Growth inhibition of human RXF393 cells assessed as cell growth at 5X10'-7 M after 48 hrs by sulforhodamine B assay; conditions: RXF 393, 48 h, read-out: Activity
OVCAR-8 = assay: Growth inhibition of human OVCAR8 cells assessed as cell growth at 5X10'-7 M after 48 hrs by sulforhodamine B assay; conditions: OVCAR-8, 48 h, read-out: Activity
NCI-H460 [9] = assay: Growth inhibition of human NCI-H460 cells assessed as cell growth at 5X10'-7 M after 48 hrs by sulforhodamine B assay; conditions: NCI-H460, 48 h, read-out: Activity
HOP-62 [10] = assay: Growth inhibition of human HOP62 cells assessed as cell growth at 5X10'-7 M after 48 hrs by sulforhodamine B assay; conditions: HOP-62, 48 h, read-out: Activity
CCRF-CEM = assay: Growth inhibition of human CCRF-CEM cells assessed as cell growth at 5X10'-7 M after 48 hrs by sulforhodamine B assay; conditions: read-out: Activity
OVCAR-4 = assay: Growth inhibition of human OVCAR4 cells assessed as cell growth at 5X10'-8 M after 48 hrs by sulforhodamine B assay; conditions: OVCAR-4, 48 h, read-out: Activity
OVCAR-3 = assay: Growth inhibition of human OVCAR3 cells assessed as cell growth at 5X10'-8 M after 48 hrs by sulforhodamine B assay; conditions: OVCAR-3, 48 h, read-out: Activity
SK-MEL-28 = assay: Growth inhibition of human SK-MEL-28 cells assessed as cell growth at 5X10'-8 M after 48 hrs by sulforhodamine B assay; conditions: SK-MEL-28, 48 h, read-out: Activity
SF-539 = assay: Growth inhibition of human SF539 cells assessed as cell growth at 5X10'-8 M after 48 hrs by sulforhodamine B assay; conditions: SF-539, 48 h, read-out: Activity
KM12 = assay: Growth inhibition of human KM12 cells assessed as cell growth at 5X10'-8 M after 48 hrs by sulforhodamine B assay; conditions: KM12, 48 h, read-out: Activity
PC-3 = assay: Growth inhibition of human PC3 cells assessed as cell growth at 5X10'-5 M after 48 hrs by sulforhodamine B assay; conditions: PC-3, 48 h, read-out: Activity
[11] = Growth inhibition of human NCI-ADR-RES cells assessed as cell growth at 5X10'-5 M after 48 hrs by sulforhodamine B assay; conditions: read-out: Activity
SK-MEL-2 = assay: Growth inhibition of human SK-MEL-2 cells assessed as cell growth at 5X10'-5 M after 48 hrs by sulforhodamine B assay; conditions: SK-MEL-2, 48 h, read-out: Activity
NCI-H226 = assay: Growth inhibition of human NCI-H226 cells assessed as cell growth at 5X10'-8 M after 48 hrs by sulforhodamine B assay; conditions: NCI-H226, 48 h, read-out: Activity
HOP-62 [12] = assay: Growth inhibition of human HOP62 cells assessed as cell growth at 5X10'-8 M after 48 hrs by sulforhodamine B assay; conditions: HOP-62, 48 h, read-out: Activity
CAKI-1 [13] = assay: Growth inhibition of human CAKI-1 cells assessed as cell growth at 5X10'-9 M after 48 hrs by sulforhodamine B assay; conditions: CAKI-1, 48 h, read-out: Activity
SK-OV-3 = assay: Growth inhibition of human SKOV3 cells assessed as cell growth at 5X10'-9 M after 48 hrs by sulforhodamine B assay; conditions: SK-OV-3, 48 h, read-out: Activity
UACC-257 = assay: Growth inhibition of human UACC257 cells assessed as cell growth at 5X10'-9 M after 48 hrs by sulforhodamine B assay; conditions: UACC-257, 48 h, read-out: Activity
U-251 = assay: Growth inhibition of human U251 cells assessed as cell growth at 5X10'-9 M after 48 hrs by sulforhodamine B assay; conditions: U-251, 48 h, read-out: Activity
SNB-75 = assay: Growth inhibition of human SNB75 cells assessed as cell growth at 5X10'-9 M after 48 hrs by sulforhodamine B assay; conditions: SNB-75, 48 h, read-out: Activity

Molecule O=C(Nc1cccc(-n2cc(-c3ccncc3)c(-c3ccc(Cl)c(O)c3)n2)c1)Nc1cc(C(F)(F)F)cc(C(F)(F)F)c1 has a growth at 0.005 µM (HCT-15 [1]) of 98%, a growth at 0.005 µM (HCT-116 [2]) of 101% and a growth at 50 µM (Malme-3M) of -64%. The growth at 50 µM (HT-29) was -90%, the growth at 50 µM (HCT-15 [3]) was -74% and the growth at 50 µM (HCT-116 [4]) was -96%. It also gave a growth at 50 µM (COLO 205) of -91%, a growth at 5 µM (T47D) of 20% and a growth at 5 µM (CAKI-1 [5]) of -4%. The growth at 5 µM (A498) was -4%, the growth at 0.005 µM (HOP-62 [6]) was 95% and the growth at 5 µM (HCT-15 [7]) was -9%. The growth at 5 µM (NCI-H460 [8]) was -51%, the growth at 5 µM (NCI-H322M) was 3% and the growth at 0.5 µM (MDA-MB-468) was 37%. The growth at 0.5 µM (UO-31) was 62%, the growth at 0.5 µM (RXF 393) was 82% and the growth at 0.5 µM (OVCAR-8) was 52%. For the same molecule, the growth at 0.5 µM (NCI-H460 [9]) was 45%, the growth at 0.5 µM (HOP-62 [10]) was 96% and the growth at 0.5 µM (CCRF-CEM) was 62%. The growth at 0.05 µM (OVCAR-4) was 95%, the growth at 0.05 µM (OVCAR-3) was 111% and the growth at 0.05 µM (SK-MEL-28) was 95%. It also gave a growth at 0.05 µM (SF-539) of 94%, a growth at 0.05 µM (KM12) of 103% and a growth at 50 µM (PC-3) of -49%. For the same molecule, the growth at 50 µM [11] was -56%, the growth at 50 µM (SK-MEL-2) was -77% and the growth at 0.05 µM (NCI-H226) was 85%. The growth at 0.05 µM (HOP-62 [12]) was 97%, the growth at 0.005 µM (CAKI-1 [13]) was 97% and the growth at 0.005 µM (SK-OV-3) was 103%. For the same molecule, the growth at 0.005 µM (UACC-257) was 94%, the growth at 0.005 µM (U-251) was 95% and the growth at 0.005 µM (SNB-75) was 88%.
